Patent publication US5281602A, “Angiotensin II receptor blocking 2,3,6-substituted 5,6,7,8-tetrahydro-pyrido[4,3-D]pyrimidin-4(3H)-ones” (American Cyanamid Company, priority 1993, dated 1994)
“And” between values parts separate entries of the source, which are not always exact repeats. Identical values can stand only once.

Key:
Angiotension II Receptor = experiment: Receptor Binding Assay: competition with [^125 I] (Sar^1,Ile^8) AngII on microsomal membranes; settings: pH 7.4, 60 min, room temperature
Description: Binding of [^125 I] (Sar^1,Ile^8) AngII
The binding of [^125 I] (Sar^1,Ile^8) AngII to microsomal membranes is initiated by the addition of reconstituted membranes (1:10 vols.) in freshly made 50.0 mMTris.HCl buffer, pH 7.4 containing 0.25% heat inactivated bovine serum albumin (BSA):80 ul membrane protein (10 to 20 ug/assay) to wells already containing 100 ul of incubation buffer (as described above) and 20 ul [^125 I] (Sar^1,Ile^8) AngII (Specific Activity, 2200 Ci/mmole). Non-specific binding is measured in the presence of 1.0 uM unlabeled (Sar^1,Ile^8) AngII, added in 20 ul volume. Specific binding for [^125 I] (Sar^1,Ile^8) AngII is greater than 90%. In competition studies, experimental compounds are diluted in dimethylsulfoxide (DMSO) and added in 20 ul to wells before the introduction of tissue membranes. This concentration of DMSO is found to have no negative effects on the binding of [^125 I] (Sar^1,Ile^8) AngII to the membranes. Assays are performed in triplicate. […] Presoaking the filter sheet in 0.1% polyethylenemine in normal saline (PEI/Saline) greatly reduces the radioactivity retained by the filter blanks. […] The filters are removed from the filter grid and counted in a Parkard® Cobra Gamma Counter for 1 min. […] The binding data are analyzed by the non-linear interactive "LUNDON-1" program (LUNDON SOFTWARE Inc., Cleveland, Ohio U.S.A.). […]

[1] = test system: ANGIOTENSIN II (A11) VASOPRESSOR RESPONSE; experiment: AII Challenge: blockade of angiotensin II vasopressor response in conscious SHR; assay type: in vivo, rat (Conscious Male Okamoto-Aoki SHR); settings: for Change (single reading, systolic blood pressure) / Response After A11 (systolic blood pressure) / Control Before A11 (systolic blood pressure): 15 mg/kg
Excerpt: By administering a compound of this invention to a rat, and then challenging with angiotensin II, a blockage of the vasopressor response is realized.
Conscious Male Okamoto-Aoki SHR, 16-20 weeks old, weighing approximately 330 g are purchased from Charles River Labs (Wilmington, Mass.). Conscious rats are restrained in a supine position with elastic tape. The area at the base of the tail is locally anesthetized by subcutaneous infiltration with 2% procaine. The ventral caudal artery and vein are isolated, and a cannula made of polyethylene (PE) 10-20 tubing (fused together by heat) is passed into the lower abdominal aorta and vena cava, respectively. The cannula is secured, heparinized (1,000 I.U./ml), sealed and the wound is closed. The animals are placed in plastic restraining cages in an upright position. The cannula is attached to a Statham P23Db pressure transducer, and pulsatile blood pressure is recorded to 10-15 minutes with a Gould Brush recorder. (Chan et al., (Drug Development Res., 18:75-94, 1989).
Angiotensin II (human sequence, Sigma Chem. Co., St. Louis, Mo.) of 0.05 and 0.1 ug/kg i.v. is injected into all rats (predosing response). Then a test compound, vehicle or a known angiotensin II antagonist is administered i.v., i.p. or orally to each set of rats. […] The vasopressor response of angiotensin II is measured for the increase in systolic blood pressure in mmHg. The percentage of antagonism or blockade of the vasopressor response of angiotensin II by a compound is calculated using the vasopressor response (increase in systolic blood pressure) of angiotensin II of each rat predosing the compound as 100%. A compound is considered active if at 30 mg/kg i.v. it antagonized at least 50% of the response.

[2] = 15 mg/kg IV (single), AII 0.05 mcg/kg IV, 120 min post dose
[3] = 15 mg/kg IV (single), AII 0.05 mcg/kg IV, 180 min post dose
[4] = 15 mg/kg IV (single), AII 0.1 mcg/kg IV, 120 min post dose
[5] = 15 mg/kg IV (single), AII 0.1 mcg/kg IV, 180 min post dose
[6] = 15 mg/kg IV, AII 0.05 mcg/kg IV, 30 min post dose
[7] = 15 mg/kg IV, AII 0.05 mcg/kg IV, 60 min post dose
[8] = 15 mg/kg IV, AII 0.05 mcg/kg IV, 90 min post dose
[9] = 15 mg/kg IV, AII 0.1 mcg/kg IV, 30 min post dose
[10] = 15 mg/kg IV, AII 0.1 mcg/kg IV, 60 min post dose
[11] = 15 mg/kg IV, AII 0.1 mcg/kg IV, 90 min post dose

CCCCc1nc2c(c(=O)n1Cc1ccc(-c3ccccc3-c3nnn[nH]3)cc1)CN(C(=O)C(C)(C)O)CC2 [Example 16]
IC50 (Angiotension II Receptor): 600 nM | Average % Inhibition (angiotensin blockage) of AII vasopressor response [1, 2]: 39% | Average Change (systolic blood pressure response to AII) [1, 2]: 27.5 mmHg | Change (single reading, systolic blood pressure) [1, 2]: 35 mmHg and 20 mmHg | Average % Inhibition (angiotensin blockage) of AII vasopressor response [1, 3]: 6% | Average Change (systolic blood pressure response to AII) [1, 3]: 42.5 mmHg | Change (single reading, systolic blood pressure) [1, 3]: 55 mmHg and 30 mmHg | Average % Inhibition (angiotensin blockage) of AII vasopressor response [1, 4]: 35% | Average Change (systolic blood pressure response to AII) [1, 4]: 32.5 mmHg | Change (single reading, systolic blood pressure) [1, 4]: 40 mmHg and 25 mmHg | Average % Inhibition (angiotensin blockage) of AII vasopressor response [1, 5]: 5% | Average Change (systolic blood pressure response to AII) [1, 5]: 47.5 mmHg | Change (single reading, systolic blood pressure) [1, 5]: 50 mmHg and 45 mmHg | Response After A11 (systolic blood pressure) ([1]; 15 mg/kg IV (single), after AII 0.05 mcg/kg IV, 120 min post dose): 245 mmHg and 195 mmHg | Response After A11 (systolic blood pressure) ([1]; 15 mg/kg IV (single), after AII 0.05 mcg/kg IV, 180 min post dose): 230 mmHg and 195 mmHg | Response After A11 (systolic blood pressure) ([1]; 15 mg/kg IV (single), after AII 0.1 mcg/kg IV, 120 min post dose): 240 mmHg and 200 mmHg | Response After A11 (systolic blood pressure) ([1]; 15 mg/kg IV (single), after AII 0.1 mcg/kg IV, 180 min post dose): 260 mmHg and 210 mmHg | Control Before A11 (systolic blood pressure) ([1]; 15 mg/kg IV (single), before AII 0.05 mcg/kg IV, 120 min post dose): 210 mmHg and 175 mmHg | Control Before A11 (systolic blood pressure) ([1]; 15 mg/kg IV (single), before AII 0.05 mcg/kg IV, 180 min post dose): 175 mmHg and 165 mmHg | Control Before A11 (systolic blood pressure) ([1]; 15 mg/kg IV (single), before AII 0.1 mcg/kg IV, 120 min post dose): 200 mmHg and 175 mmHg | Control Before A11 (systolic blood pressure) ([1]; 15 mg/kg IV (single), before AII 0.1 mcg/kg IV, 180 min post dose): 210 mmHg and 165 mmHg | Average % Inhibition (angiotensin blockage) of AII vasopressor response [1, 6]: 72% | Average Change (systolic blood pressure response to AII) [1, 6]: 12.5 mmHg | Change (single reading, systolic blood pressure) [1, 6]: 15 mmHg and 10 mmHg | Average % Inhibition (angiotensin blockage) of AII vasopressor response [1, 7]: 67% | Average Change (systolic blood pressure response to AII) [1, 7]: 15 mmHg | Average % Inhibition (angiotensin blockage) of AII vasopressor response [1, 8]: 37% | Average Change (systolic blood pressure response to AII) [1, 8]: 28.5 mmHg | Average % Inhibition (angiotensin blockage) of AII vasopressor response [1, 9]: 85% | Average Change (systolic blood pressure response to AII) [1, 9]: 7.5 mmHg | Change (single reading, systolic blood pressure) [1, 9]: 10 mmHg and 5 mmHg | Average % Inhibition (angiotensin blockage) of AII vasopressor response [1, 10]: 57% | Average Change (systolic blood pressure response to AII) [1, 10]: 21.5 mmHg | Average % Inhibition (angiotensin blockage) of AII vasopressor response [1, 11]: 33% | Average Change (systolic blood pressure response to AII) [1, 11]: 33.5 mmHg | Change (single reading, systolic blood pressure) [1, 11]: 42 mmHg and 25 mmHg | Response After A11 (systolic blood pressure) ([1]; 15 mg/kg IV, after AII 0.05 mcg/kg IV, 30 min post dose): 210 mmHg and 185 mmHg | Response After A11 (systolic blood pressure) ([1]; 15 mg/kg IV, after AII 0.05 mcg/kg IV, 60 min post dose): 215 mmHg and 190 mmHg | Response After A11 (systolic blood pressure) ([1]; 15 mg/kg IV, after AII 0.05 mcg/kg IV, 90 min post dose): 225 mmHg and 190 mmHg | Response After A11 (systolic blood pressure) ([1]; 15 mg/kg IV, after AII 0.1 mcg/kg IV, 30 min post dose): 205 mmHg and 180 mmHg | Response After A11 (systolic blood pressure) ([1]; 15 mg/kg IV, after AII 0.1 mcg/kg IV, 60 min post dose): 220 mmHg and 188 mmHg | Response After A11 (systolic blood pressure) ([1]; 15 mg/kg IV, after AII 0.1 mcg/kg IV, 90 min post dose): 230 mmHg and 195 mmHg | Control Before A11 (systolic blood pressure) ([1]; 15 mg/kg IV, before AII 0.05 mcg/kg IV, 30 min post dose): 195 mmHg and 175 mmHg | Control Before A11 (systolic blood pressure) ([1]; 15 mg/kg IV, before AII 0.05 mcg/kg IV, 60 min post dose): 190 mmHg and 185 mmHg | Control Before A11 (systolic blood pressure) ([1]; 15 mg/kg IV, before AII 0.05 mcg/kg IV, 90 min post dose): 183 mmHg and 175 mmHg | Control Before A11 (systolic blood pressure) ([1]; 15 mg/kg IV, before AII 0.1 mcg/kg IV, 30 min post dose): 195 mmHg and 175 mmHg | Control Before A11 (systolic blood pressure) ([1]; 15 mg/kg IV, before AII 0.1 mcg/kg IV, 60 min post dose): 190 mmHg and 175 mmHg | Control Before A11 (systolic blood pressure) ([1]; 15 mg/kg IV, before AII 0.1 mcg/kg IV, 90 min post dose): 188 mmHg and 170 mmHg
